Assay results reported in patent US11053516B2, “Glucose composition, microbial fermentation raw material, and method of producing chemical product” (Toray Industries, Inc., priority 2016, dated 2021).

Description: Further, the glucose composition was adjusted to a final pH of 7 using 6 N sodium hydroxide.

For `O=C(O)/C=C/c1ccc(O)cc1` [Coumaric acid, trans-p-coumaric acid], the Solubility in water was “not dissolved”.
